Laboratory results from ChEMBL document CHEMBL1671617, “Correlation of antimicrobial resistance with beta-lactamases, the OmpA-like porin, and efflux pumps in clinical isolates of Acinetobacter baumannii endemic to New York City” (2008).
≈ marks a conversion by molar mass, not a printed value.

Tests used:
Type in all cases: functional
[1] = test system: Acinetobacter baumannii; assay: Antimicrobial activity against ISAba1 linked with the blaOXA-51-type beta-lactamase harboring Acinetobacter baumannii beta clonal group isolate 16 expressing ompA, adeB, adeM, aacA4, blaSHV-5 by Etest method
[2] = test system: Acinetobacter baumannii; assay: Antimicrobial activity against Acinetobacter baumannii nu clonal group isolate 32 expressing ampC, ompA, adeB, adeM, aadB, aadA2 by Etest method
[3] = test system: Acinetobacter baumannii; assay: Antimicrobial activity against ISAba1 linked with the blaOXA-51-type beta-lactamase harboring Acinetobacter baumannii beta clonal group isolate 18 expressing ompA, adeB, adeM, aacA4, blaSHV-5 by Etest method
[4] = test system: Acinetobacter baumannii; assay: Antimicrobial activity against ISAba1 linked with the blaOXA-51-type beta-lactamase harboring Acinetobacter baumannii beta clonal group isolate 12 expressing ompA, adeB, adeM, aacA4, aacC2, blaSHV-5 by Etest method
[5] = test system: Acinetobacter baumannii; assay: Antimicrobial activity against ISAba1 linked with the blaOXA-51-type beta-lactamase harboring Acinetobacter baumannii beta clonal group isolate 13 expressing ompA, adeB, adeM, aacA4, blaSHV-5 by Etest method
[6] = test system: Acinetobacter baumannii; assay: Antimicrobial activity against ISAba1 linked with the blaOXA-51-type beta-lactamase harboring Acinetobacter baumannii beta clonal group isolate 10 expressing ompA, adeB, adeM, aacA4, blaSHV-5 by Etest method
[7] = test system: Acinetobacter baumannii; assay: Antimicrobial activity against ISAba1 linked with the blaOXA-51-type beta-lactamase harboring Acinetobacter baumannii zeta clonal group isolate 26 expressing ampC, ompA, adeB, adeM, aadA1, aacA4, aacC2, blaSHV-5 by Etest method
[8] = test system: Acinetobacter baumannii; assay: Antimicrobial activity against Acinetobacter baumannii eta clonal group isolate 35 expressing ampC, ompA, adeB, adeM by Etest method
[9] = test system: Acinetobacter baumannii; assay: Antimicrobial activity against Acinetobacter baumannii nu clonal group isolate 34 expressing ampC, ompA, adeB, adeM by Etest method
[10] = test system: Acinetobacter baumannii; assay: Antimicrobial activity against ISAba1 linked with the blaOXA-51-type beta-lactamase harboring Acinetobacter baumannii zeta clonal group isolate 22 expressing ampC, ompA, adeB, adeM, aadA1, aacA4, aacC2, blaSHV-5 by Etest method
[11] = test system: Acinetobacter baumannii; assay: Antimicrobial activity against ISAba1 linked with the blaOXA-51-type beta-lactamase harboring Acinetobacter baumannii beta clonal group isolate 14 expressing ompA, adeB, adeM, aacA4, blaSHV-5 by Etest method
[12] = test system: Acinetobacter baumannii; assay: Antimicrobial activity against ISAba1 linked with the blaOXA-51-type beta-lactamase harboring Acinetobacter baumannii beta clonal group isolate 11 expressing ompA, adeB, adeM, blaSHV-5 by Etest method
[13] = test system: Acinetobacter baumannii; assay: Antimicrobial activity against Acinetobacter baumannii eta clonal group isolate 36 expressing ampC, ompA, adeB, adeM by Etest method
[14] = test system: Acinetobacter baumannii; assay: Antimicrobial activity against Acinetobacter baumannii alpha clonal group isolate 2 expressing ampC, ompA, adeB, adeM, aacC1, aadA1 by Etest method
[15] = test system: Acinetobacter baumannii; assay: Antimicrobial activity against ISAba1 linked with the blaOXA-51-type beta-lactamase harboring Acinetobacter baumannii zeta clonal group isolate 19 expressing ampC, ompA, adeB, adeM, aacC2 by Etest method
[16] = test system: Acinetobacter baumannii; assay: Antimicrobial activity against ISAba1 linked with the blaOXA-51-type beta-lactamase harboring Acinetobacter baumannii beta clonal group isolate 17 expressing ompA, adeB, adeM, aacA4, blaSHV-5 by Etest method
[17] = test system: Acinetobacter baumannii; assay: Antimicrobial activity against ISAba1 linked with the blaOXA-51-type beta-lactamase harboring Acinetobacter baumannii alpha clonal group isolate 7 expressing ampC, ompA, adeB, adeM, blaSHV-5 by Etest method
[18] = test system: Acinetobacter baumannii; assay: Antimicrobial activity against ISAba1 linked with the blaOXA-51-type beta-lactamase harboring Acinetobacter baumannii unique clonal group isolate 40 expressing ampC, ompA, adeB, adeM, aadA1, aacA4, aacC2, blaSHV-5 by Etest method
[19] = test system: Acinetobacter baumannii; assay: Antimicrobial activity against Acinetobacter baumannii alpha clonal group isolate 4 expressing ampC, ompA, adeB, adeM, aacC1, aadA1 by Etest method
[20] = test system: Acinetobacter baumannii; assay: Antimicrobial activity against ISAba1 linked with the blaOXA-51-type beta-lactamase harboring Acinetobacter baumannii lambda clonal group isolate 28 expressing ampC, ompA, adeM, aadB, aadA1 by Etest method
[21] = test system: Acinetobacter baumannii; assay: Antimicrobial activity against ISAba1 linked with the blaOXA-51-type beta-lactamase harboring Acinetobacter baumannii alpha clonal group isolate 1 expressing ampC, ompA, adeB, adeM by Etest method
[22] = test system: Acinetobacter baumannii; assay: Antimicrobial activity against Acinetobacter baumannii unique clonal group isolate 39 expressing ampC, ompA, adeM by Etest method
[23] = test system: Acinetobacter baumannii; assay: Antimicrobial activity against Acinetobacter baumannii nu clonal group isolate 31 expressing ampC, ompA, adeB, adeM, aadB, aadA2 by Etest method
[24] = test system: Acinetobacter baumannii; assay: Antimicrobial activity against Acinetobacter baumannii alpha clonal group isolate 5 expressing ampC, ompA, adeB, adeM, aacC1, aadA1 by Etest method
[25] = test system: Acinetobacter baumannii; assay: Antimicrobial activity against ISAba1 linked with the blaOXA-51-type beta-lactamase harboring Acinetobacter baumannii zeta clonal group isolate 21 expressing ampC, ompA, adeB, adeM, aacC2, blaSHV-5 by Etest method
[26] = test system: Acinetobacter baumannii; assay: Antimicrobial activity against Acinetobacter baumannii lambda clonal group isolate 27 expressing ampC, ompA, adeB, adeM, aadB, aadA1 by Etest method
[27] = test system: Acinetobacter baumannii; assay: Antimicrobial activity against Acinetobacter baumannii nu clonal group isolate 33 expressing ampC, ompA, adeB, adeM by Etest method
[28] = test system: Acinetobacter baumannii; assay: Antimicrobial activity against ISAba1 linked with the blaOXA-51-type beta-lactamase harboring Acinetobacter baumannii zeta clonal group isolate 25 expressing ampC, ompA, adeB, adeM, aadA1, aacA4, aacC2, blaSHV-5 by Etest method
[29] = test system: Acinetobacter baumannii; assay: Antimicrobial activity against ISAba1 linked with the blaOXA-51-type beta-lactamase harboring Acinetobacter baumannii alpha clonal group isolate 8 expressing ampC, ompA, adeB, adeM, aacC1, aadA1 by Etest method
[30] = test system: Acinetobacter baumannii; assay: Antimicrobial activity against ISAba1 linked with the blaOXA-51-type beta-lactamase harboring Acinetobacter baumannii zeta clonal group isolate 20 expressing ampC, ompA, adeB, adeM, aacC2 by Etest method
[31] = test system: Acinetobacter baumannii; assay: Antimicrobial activity against ISAba1 linked with the blaOXA-51-type beta-lactamase harboring Acinetobacter baumannii beta clonal group isolate 9 expressing ampC, ompA, adeB, adeM by Etest method
[32] = test system: Acinetobacter baumannii; assay: Antimicrobial activity against ISAba1 linked with the blaOXA-51-type beta-lactamase harboring Acinetobacter baumannii lambda clonal group isolate 29 expressing ampC, ompA, adeM, aadB, aadA1 by Etest method
[33] = test system: Acinetobacter baumannii; assay: Antimicrobial activity against ISAba1 linked with the blaOXA-51-type beta-lactamase harboring Acinetobacter baumannii alpha clonal group isolate 6 expressing ampC, ompA, adeB, adeM, aacC1, aadA1 by Etest method
[34] = test system: Acinetobacter baumannii; assay: Antimicrobial activity against Acinetobacter baumannii alpha clonal group isolate 3 expressing ampC, ompA, adeB, adeM, aacC1, aadA1 by Etest method
[35] = test system: Acinetobacter baumannii; assay: Antimicrobial activity against Acinetobacter baumannii unique clonal group isolate 38 expressing ampC, ompA, adeB, adeM by Etest method
[36] = test system: Acinetobacter baumannii; assay: Antimicrobial activity against ISAba1 linked with the blaOXA-51-type beta-lactamase harboring Acinetobacter baumannii beta clonal group isolate 15 expressing ompA, adeB, adeM, aacA4, blaSHV-5 by Etest method
[37] = test system: Acinetobacter baumannii; assay: Antimicrobial activity against ISAba1 linked with the blaOXA-51-type beta-lactamase harboring Acinetobacter baumannii zeta clonal group isolate 24 expressing ampC, ompA, adeB, adeM, aadA1, aacA4, aacC2, blaSHV-5 by Etest method
[38] = test system: Acinetobacter baumannii; assay: Antimicrobial activity against ISAba1 linked with the blaOXA-51-type beta-lactamase harboring Acinetobacter baumannii zeta clonal group isolate 23 expressing ampC, ompA, adeB, adeM, aadA1, aacA4, aacC2, aphA6 by Etest method
[39] = test system: Acinetobacter baumannii; assay: Antimicrobial activity against ISAba1 linked with the blaOXA-51-type beta-lactamase harboring Acinetobacter baumannii lambda clonal group isolate 30 expressing ampC, ompA, adeB, adeM, aadB, aadA1 by Etest method
[40] = test system: Acinetobacter baumannii; assay: Antimicrobial activity against Acinetobacter baumannii unique clonal group isolate 37 expressing ampC, ompA, adeB, adeM by Etest method

Row | Molecule | MIC [1] [µg/mL] | MIC [2] [µg/mL] | MIC [3] [µg/mL] | MIC [4] [µg/mL] | MIC [5] [µg/mL] | MIC [6] [µg/mL] | MIC [7] [µg/mL] | MIC [8] [µg/mL] | MIC [9] [µg/mL] | MIC [10] [µg/mL] | MIC [11] [µg/mL] | MIC [12] [µg/mL] | MIC [13] [µg/mL] | MIC [14] [µg/mL] | MIC [15] [µg/mL] | MIC [16] [µg/mL] | MIC [17] [µg/mL] | MIC [18] [µg/mL] | MIC [19] [µg/mL] | MIC [20] [µg/mL] | other results
1 | C[C@@H](O)[C@H]1C(=O)N2C(C(=O)O)=C(S[C@@H]3CN[C@H](C(=O)N(C)C)C3)[C@H](C)[C@H]12 [MEROPENEM] | > 32 | 0.38 (≈ 0.991 µM) | > 32 | > 32 | > 32 | > 32 | > 2 | 0.75 (≈ 1.96 µM) | 0.38 (≈ 0.991 µM) | > 32 | > 32 | > 32 | 0.75 (≈ 1.96 µM) | 1.5 (≈ 3.91 µM) | > 1.5 | > 32 | > 32 | > 32 | 1.5 (≈ 3.91 µM) | > 32 | MIC [21]: 4 µg/mL (≈ 10.4 µM); MIC [22]: 0.25 µg/mL (≈ 0.652 µM); MIC [23]: 0.38 µg/mL (≈ 0.991 µM); MIC [24]: 1.5 µg/mL (≈ 3.91 µM); MIC [25]: 16 µg/mL (≈ 41.7 µM); MIC [26]: 32 µg/mL (≈ 83.4 µM); MIC [27]: 0.38 µg/mL (≈ 0.991 µM); MIC [28]: > 2 µg/mL; MIC [29]: 24 µg/mL (≈ 62.6 µM); MIC [30]: > 1.5 µg/mL; MIC [31]: > 32 µg/mL; MIC [32]: > 32 µg/mL; MIC [33]: 12 µg/mL (≈ 31.3 µM); MIC [34]: 1.5 µg/mL (≈ 3.91 µM); MIC [35]: 0.38 µg/mL (≈ 0.991 µM); MIC [36]: > 32 µg/mL; MIC [37]: > 2 µg/mL; MIC [38]: > 32 µg/mL; MIC [39]: > 32 µg/mL; MIC [40]: 1.5 µg/mL (≈ 3.91 µM)
2 | GENTAMICIN | 8 | > 256 | 64 | > 256 | 8 | 4 | > 256 | 3 | 2 | > 256 | 8 | 2 | 3 | 12 | > 256 | 8 | 2 | > 256 | 12 | 16 | MIC [21]: 1 µg/mL; MIC [22]: 0.38 µg/mL; MIC [23]: > 256 µg/mL; MIC [24]: 12 µg/mL; MIC [25]: > 256 µg/mL; MIC [26]: 1.5 µg/mL; MIC [27]: 2 µg/mL; MIC [28]: > 256 µg/mL; MIC [29]: 192 µg/mL; MIC [30]: > 256 µg/mL; MIC [31]: 6 µg/mL; MIC [32]: 16 µg/mL; MIC [33]: 8 µg/mL; MIC [34]: 12 µg/mL; MIC [35]: 0.25 µg/mL; MIC [36]: 8 µg/mL; MIC [37]: > 256 µg/mL; MIC [38]: > 256 µg/mL; MIC [39]: > 256 µg/mL; MIC [40]: 6 µg/mL
3 | CC(C)(O/N=C(\C(=O)N[C@@H]1C(=O)N2C(C(=O)[O-])=C(C[n+]3ccccc3)CS[C@H]12)c1csc(N)n1)C(=O)O [CEFTAZIDIME] | > 48 | 4 (≈ 7.32 µM) | 96 (≈ 176 µM) | > 256 | > 48 | 48 (≈ 87.8 µM) | > 256 | 12 (≈ 22 µM) | 6 (≈ 11 µM) | > 256 | > 48 | 128 (≈ 234 µM) | 12 (≈ 22 µM) | > 256 | 24 (≈ 43.9 µM) | > 48 | > 256 | > 256 | > 256 | > 256 | MIC [21]: > 256 µg/mL; MIC [22]: 4 µg/mL (≈ 7.32 µM); MIC [23]: 4 µg/mL (≈ 7.32 µM); MIC [24]: > 256 µg/mL; MIC [25]: 32 µg/mL (≈ 58.5 µM); MIC [26]: > 256 µg/mL; MIC [27]: 6 µg/mL (≈ 11 µM); MIC [28]: > 256 µg/mL; MIC [29]: 96 µg/mL (≈ 176 µM); MIC [30]: 24 µg/mL (≈ 43.9 µM); MIC [31]: 48 µg/mL (≈ 87.8 µM); MIC [32]: > 256 µg/mL; MIC [33]: > 256 µg/mL; MIC [34]: > 256 µg/mL; MIC [35]: 16 µg/mL (≈ 29.3 µM); MIC [36]: > 48 µg/mL; MIC [37]: > 256 µg/mL; MIC [38]: 16 µg/mL (≈ 29.3 µM); MIC [39]: > 256 µg/mL; MIC [40]: 12 µg/mL (≈ 22 µM)
